Results reported in EP0148283A1, “Novel penicillanic acid derivatives” (F. HOFFMANN-LA ROCHE & CO. Aktiengesellschaft, priority 1983, dated 1985).
Values after ≈ are worked out from the molar mass of the structure shown. Counter-ions that a name gives are not always drawn. Like-named read-outs stand apart in the source and are kept apart here.

Key:
Test in all cases: In vitro antibacterial activity, MIC by broth dilution in 96-well trays
Format in all cases: cell-based
[1] = test system: C. diversus; settings: Citrobacter koseri; C. diversus strain CDC 1663-72
Experimental: (§1) The in vitro antibacterial activity of the following compounds:
(§2) The diluted agents are dispensed in 100 µl amounts into the wells of a 96-well tray and used immediately or frozen at -10 to -70°C until needed. Using an automated inoculator, 1.5 µl of a 10^-2 dilution of an overnight culture is added to each well of the tray. The tops of the trays are then sealed using transparent tape and incubated overnight at 37°C. The trays are examined with the aid of a viewer. The lowest concentration at which no growth is observed is considered to be the minimum inhibitory concentration (MIC). [formula] [formula] [formula] [formula] [formula] [formula] [formula] [formula] [formula] [formula] [formula]

[2] = test system: C. freundii; settings: Citrobacter freundii
Experimental: as §1, §2

[3] = test system: E. aerogenes; settings: Klebsiella aerogenes
Experimental: as §1, §2

[4] = test system: E. cloacae; settings: Enterobacter cloacae
Experimental: as §1, §2

[5] = test system: E. coli; settings: Escherichia coli
Experimental: as §1, §2

[6] = test system: K. pneumoniae; settings: Klebsiella pneumoniae
Experimental: as §1, §2

[7] = test system: P. mirabilis; settings: Proteus mirabilis
Experimental: as §1, §2

[8] = test system: P. rettgeri; settings: Providencia rettgeri, ATCC9250; P. rettgeri strain ATCC 9250
Experimental: as §1, §2

[9] = test system: P. vulgaris; settings: Proteus vulgaris
Experimental: as §1, §2

[10] = test system: S. marcescens
Experimental: as §1, §2

[11] = test system: S. schottmuelleri
Experimental: as §1, §2

[12] = test system: S. typhi P58A; settings: Salmonella enterica
Experimental: as §1, §2

[13] = test system: P.aeruginosa; settings: Pseudomonas aeruginosa
Experimental: as §1, §2

[14] = test system: S. aureus; settings: Staphylococcus aureus
Experimental: as §1, §2

[15] = test system: S. faecalis; settings: Enterococcus faecalis; S. faecalis C1
Experimental: as §1, §2

[16] = test system: S. pneumoniae; settings: Streptococcus pneumoniae
Experimental: as §1, §2

[17] = test system: S. pyogenes; settings: Streptococcus pyogenes
Experimental: as §1, §2

## CC1(C)S[C@@H]2[C@H](/N=C/N3CCCCCC3)C(=O)N2[C@H]1C(=O)O [Amdinocillin]
[1]
  MIC: 0.062 µg/mL (≈ 0.191 µM)
[2]; C. freundii strain CDC6
  MIC: 0.125 µg/mL (≈ 0.384 µM)
[2]; C. freundii strain 8ASM, read-out: MIC
  MIC: 0.062 µg/mL (≈ 0.191 µM)
[3]
  MIC: 128 µg/mL (≈ 393 µM)
[3]; E. aerogenes strain 83, read-out: MIC
  MIC: 8 µg/mL (≈ 24.6 µM)
[3]; E. aerogenes strain 503-478, read-out: MIC
  MIC: 4 µg/mL (≈ 12.3 µM)
[4]; E. cloacae strain 24
  MIC: 0.125 µg/mL (≈ 0.384 µM)
[4]; E. cloacae strain 214
  MIC: 0.125 µg/mL (≈ 0.384 µM)
[4]; E. cloacae strain 5699
  MIC: 0.25 µg/mL (≈ 0.768 µM)
[4]; E. cloacae strain 6951
  MIC: 16 µg/mL (≈ 49.2 µM)
[4]; E. cloacae strain 9295
  MIC: 0.25 µg/mL (≈ 0.768 µM)
[4]; E. cloacae strain 9570A
  MIC: 0.125 µg/mL (≈ 0.384 µM)
[4]; E. cloacae strain P99
  MIC: 0.062 µg/mL (≈ 0.191 µM)
[5]; E. coli strain 4
  MIC: 0.062 µg/mL (≈ 0.191 µM)
[5]; E. coli strain 48
  MIC: 0.062 µg/mL (≈ 0.191 µM)
[5]; E. coli strain 257
  MIC: 0.125 µg/mL (≈ 0.384 µM)
[5]; E. coli strain 387-1
  MIC: 0.031 µg/mL (≈ 0.0953 µM)
[5]; E. coli strain 503-455
  MIC: 2 µg/mL (≈ 6.15 µM)
[5]; E. coli strain 5152
  MIC: 8 µg/mL (≈ 24.6 µM)
[5]; E. coli strain R-563
  MIC: 0.125 µg/mL (≈ 0.384 µM)
[6]; K. pneumoniae strain 35
  MIC: 0.125 µg/mL (≈ 0.384 µM)
[6]; K. pneumoniae strain 503-964
  MIC: 0.125 µg/mL (≈ 0.384 µM)
[6]; K. pneumoniae strain 503-994, read-out: MIC
  MIC: 0.062 µg/mL (≈ 0.191 µM)
[6]; K. pneumoniae strain 4964, read-out: MIC
  MIC: 64 µg/mL (≈ 197 µM)
[6]; K. pneumoniae strain 5096
  MIC: 128 µg/mL (≈ 393 µM)
[6]; K. pneumoniae strain 8357, read-out: MIC
  MIC: 0.25 µg/mL (≈ 0.768 µM)
[6]; K. pneumoniae strain A, read-out: MIC
  MIC: 0.031 µg/mL (≈ 0.0953 µM)
[6]; K. pneumoniae strain HE7, read-out: MIC
  MIC: > 128 µg/mL
[7]
  MIC: 0.125 µg/mL (≈ 0.384 µM)
[7]; P. mirabilis strain 2, read-out: MIC
  MIC: 0.25 µg/mL (≈ 0.768 µM)
[7]; P. mirabilis strain 90, read-out: MIC
  MIC: 0.25 µg/mL (≈ 0.768 µM)
[7]; P. mirabilis strain 503-1136, read-out: MIC
  MIC: 2 µg/mL (≈ 6.15 µM)
[7]; P. mirabilis strain 620A, read-out: MIC
  MIC: 64 µg/mL (≈ 197 µM)
[8]
  MIC: 0.125 µg/mL (≈ 0.384 µM)
[9]; ATCC6380, P. vulgaris strain ATCC 6380
  MIC: 0.031 µg/mL (≈ 0.0953 µM)
[9]; P. vulgaris strain 100
  MIC: 0.5 µg/mL (≈ 1.54 µM)
[9]; P. vulgaris strain 101
  MIC: 64 µg/mL (≈ 197 µM)
[10]; S. marcescens strain S3
  MIC: 0.125 µg/mL (≈ 0.384 µM)
[10]; S. marcescens strain S147
  MIC: 0.125 µg/mL (≈ 0.384 µM)
[10]; Serratia marcescens
  MIC: 0.125 µg/mL (≈ 0.384 µM)
[10]; Serratia marcescens, S. marcescens strain 5805, read-out: MIC
  MIC: 1 µg/mL (≈ 3.07 µM)
[10]; Serratia marcescens, S. marcescens strain S1, read-out: MIC
  MIC: 0.25 µg/mL (≈ 0.768 µM)
[10]; Serratia marcescens, S. marcescens strain S2, read-out: MIC
  MIC: 0.25 µg/mL (≈ 0.768 µM)
[10]; Serratia marcescens, S. marcescens strain S4, read-out: MIC
  MIC: 1 µg/mL (≈ 3.07 µM)
[10]; Serratia marcescens, S. marcescens strain S5, read-out: MIC
  MIC: 1 µg/mL (≈ 3.07 µM)
[10]; Serratia marcescens, S. marcescens strain S714, read-out: MIC
  MIC: 0.5 µg/mL (≈ 1.54 µM)
[11]
  MIC: 0.062 µg/mL (≈ 0.191 µM)
[12]
  MIC: 0.062 µg/mL (≈ 0.191 µM)

## CC1(C)S[C@@H]2[C@H](N=CN3CCC(CC4=NCCCN4)CC3)C(=O)N2[C@H]1C(=O)O [Compound U, [2S-(2alpha,5alpha,6beta)]-6-[[[4-[(1,4,5,6-tetrahydro-2-pyrimidinyl)methyl]-1-piperidinyl]-methylene]amino]-3,3-dimethyl-7-oxo-4-thia-1-azabicyclo[3.2.0]heptane-2-carboxylic acid hydrochloride]
[13]; P.aeruginosa strain 503-56
  MIC: 64 µg/mL
[13]; P.aeruginosa strain 503-820
  MIC: > 128 µg/mL
[13]; P.aeruginosa strain 5700
  MIC: 0.5 µg/mL
[13]; P.aeruginosa strain 5712
  MIC: > 128 µg/mL
[13]; P.aeruginosa strain 6148B
  MIC: 128 µg/mL
[13]; P.aeruginosa strain 8710
  MIC: > 128 µg/mL
[13]; P.aeruginosa strain 8780
  MIC: > 128 µg/mL
[13]; P.aeruginosa strain B
  MIC: 9.5 µg/mL
[13]; P.aeruginosa strain POW 151
  MIC: > 128 µg/mL
[13]; P.aeruginosa strain Stone 130
  MIC: > 128 µg/mL
[14]; S. aureus strain 1059B
  MIC: > 128 µg/mL
[14]; S. aureus strain Giorgio
  MIC: 8 µg/mL
[14]; S. aureus strain Smith
  MIC: 8 µg/mL
[15]
  MIC: 128 µg/mL
[16]; S. pneumoniae strain 6301
  MIC: 2 µg/mL
[16]; S. pneumoniae strain 6302
  MIC: 4 µg/mL
[16]; S. pneumoniae strain SC
  MIC: 4 µg/mL
[17]; S. pyogenes strain 4
  MIC: 4 µg/mL
[17]; S. pyogenes strain 503-782
  MIC: > 128 µg/mL

## CC1(C)S[C@@H]2[C@H](N=CN3CCCC(c4ncc[nH]4)C3)C(=O)N2[C@H]1C(=O)O (stereo partly drawn) [P, [2S-(2alpha,5alpha,6beta)]-6-[[[3-(1H-imidazol-2-yl)-1-piperidinyl]methylene]amino]-3,3-dimethyl-7-oxo-4-thia-1-azabicyclo[3.2.0]heptane-2-car-boxylic acid hydrochloride]
[13]; P.aeruginosa strain 503-56
  MIC: > 128 µg/mL
[13]; P.aeruginosa strain 503-820
  MIC: > 128 µg/mL
[13]; P.aeruginosa strain 5700
  MIC: 8 µg/mL
[13]; P.aeruginosa strain 5712
  MIC: > 128 µg/mL
[13]; P.aeruginosa strain 6148B
  MIC: > 128 µg/mL
[13]; P.aeruginosa strain 8710
  MIC: > 128 µg/mL
[13]; P.aeruginosa strain 8780
  MIC: > 128 µg/mL
[13]; P.aeruginosa strain B
  MIC: 8 µg/mL
[13]; P.aeruginosa strain POW 151
  MIC: > 128 µg/mL
[13]; P.aeruginosa strain Stone 130
  MIC: > 128 µg/mL
[14]; S. aureus strain 1059B
  MIC: 64 µg/mL
[14]; S. aureus strain Giorgio
  MIC: 4 µg/mL
[14]; S. aureus strain Smith
  MIC: 2 µg/mL
[15]
  MIC: 64 µg/mL
[16]; S. pneumoniae strain 6301
  MIC: 1 µg/mL
[16]; S. pneumoniae strain 6302
  MIC: 1 µg/mL
[16]; S. pneumoniae strain SC
  MIC: 1 µg/mL
[17]; S. pyogenes strain 4
  MIC: 0.5 µg/mL
[17]; S. pyogenes strain 503-782
  MIC: 64 µg/mL
